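Where inhibition never reached the appropriate level, the endpoint shown equals the highest concentration tested. Otherwise, values were interpolated linearly from a five-concentration, 48-hour dose response in 96-well plates. Abbreviation: GI50, concentration required for 50% inhibition of growth.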 Activity calls are given as the source filed them. Rule as the data show it: active = GI50 up to about 1.1 µM and inactive = higher.
Tests used:
Test in all cases: NCI tumour cell line growth inhibition, 48 h
786-0 = test system: 786-0
A498 = test system: A498
A549 = test system: A549
ACHN = test system: ACHN
CAKI-1 = test system: CAKI-1
COLO 205 = test system: COLO 205
DLD-1 = test system: DLD-1
DMS-114 = test system: DMS-114
DMS-273 = test system: DMS-273
EKVX = test system: EKVX
HCC 2998 = test system: HCC 2998
HCT-116 = test system: HCT-116
HCT-15 = test system: HCT-15
HL-60 = test system: HL-60
HOP-18 = test system: HOP-18
HOP-62 = test system: HOP-62
HOP-92 = test system: HOP-92
HT-29 = test system: HT-29
IGROV-1 = test system: IGROV-1
KM-20L2 = test system: KM-20L2
KM12 = test system: KM12
LXFL 529 = test system: LXFL 529
M14 = test system: M14
M19-MEL = test system: M19-MEL
MOLT-4 = test system: MOLT-4
Malme-3M = test system: Malme-3M
NCI-H226 = test system: NCI-H226
NCI-H23 = test system: NCI-H23
NCI-H460 = test system: NCI-H460
NCI-H522 = test system: NCI-H522
OVCAR-3 = test system: OVCAR-3
OVCAR-4 = test system: OVCAR-4
OVCAR-5 = test system: OVCAR-5
OVCAR-8 = test system: OVCAR-8
RXF 393 = test system: RXF 393
RXF 631 = test system: RXF 631
SF-268 = test system: SF-268
SF-295 = test system: SF-295
SF-539 = test system: SF-539
SK-MEL-28 = test system: SK-MEL-28
SK-MEL-2 = test system: SK-MEL-2
SK-MEL-5 = test system: SK-MEL-5
SK-OV-3 = test system: SK-OV-3
SN12C = test system: SN12C
SNB-19 = test system: SNB-19
SNB-75 = test system: SNB-75
SNB-78 = test system: SNB-78
SW-620 = test system: SW-620
TK-10 = test system: TK-10
U-251 = test system: U-251
UACC-257 = test system: UACC-257
UACC-62 = test system: UACC-62
UO-31 = test system: UO-31
XF498 = test system: XF498
CCRF-CEM = test system: CCRF-CEM
K562 = test system: K562
LOX IMVI = test system: LOX IMVI
RPMI-8226 = test system: RPMI-8226
SR = test system: SR

SMILES: Cc1ccc(NC(=O)C2C(=O)N(c3ccc(C)c(C)c3)C(=O)C2N=N)cc1C (configuration not stated)
- GI50 (786-0): > 100 µM (inactive)
- GI50 (A498): > 100 µM (inactive)
- GI50 (A549): 58.9 µM (inactive)
- GI50 (ACHN): 90.4 µM (inactive)
- GI50 (CAKI-1): > 100 µM (inactive)
- GI50 (COLO 205): > 100 µM (inactive)
- GI50 (DLD-1): > 100 µM (inactive)
- GI50 (DMS-114): 61.5 µM (inactive)
- GI50 (DMS-273): 86.5 µM (inactive)
- GI50 (EKVX): > 100 µM (inactive)
- GI50 (HCC 2998): > 100 µM (inactive)
- GI50 (HCT-116): > 100 µM (inactive)
- GI50 (HCT-15): 74.6 µM
- GI50 (HL-60): > 100 µM (inactive)
- GI50 (HOP-18): > 100 µM (inactive)
- GI50 (HOP-62): > 100 µM (inactive)
- GI50 (HOP-92): 47.9 µM (inactive)
- GI50 (HT-29): > 100 µM (inactive)
- GI50 (IGROV-1): 97.1 µM (inactive)
- GI50 (KM-20L2): > 100 µM (inactive)
- GI50 (KM12): > 100 µM (inactive)
- GI50 (LXFL 529): > 100 µM (inactive)
- GI50 (M14): > 100 µM (inactive)
- GI50 (M19-MEL): > 100 µM (inactive)
- GI50 (MOLT-4): > 100 µM (inactive)
- GI50 (Malme-3M): > 100 µM (inactive)
- GI50 (NCI-H226): > 100 µM (inactive)
- GI50 (NCI-H23): 74.5 µM (inactive)
- GI50 (NCI-H460): 89.7 µM (inactive)
- GI50 (NCI-H522): 38.1 µM (inactive)
- GI50 (OVCAR-3): > 100 µM (inactive)
- GI50 (OVCAR-4): > 100 µM (inactive)
- GI50 (OVCAR-5): > 100 µM (inactive)
- GI50 (OVCAR-8): 99.5 µM (inactive)
- GI50 (RXF 393): > 100 µM (inactive)
- GI50 (RXF 631): > 100 µM (inactive)
- GI50 (SF-268): > 100 µM (inactive)
- GI50 (SF-295): 65 µM (inactive)
- GI50 (SF-539): > 100 µM (inactive)
- GI50 (SK-MEL-28): > 100 µM (inactive)
- GI50 (SK-MEL-2): > 100 µM (inactive)
- GI50 (SK-MEL-5): 67 µM (inactive)
- GI50 (SK-OV-3): > 100 µM (inactive)
- GI50 (SN12C): > 100 µM (inactive)
- GI50 (SNB-19): > 100 µM (inactive)
- GI50 (SNB-75): > 100 µM (inactive)
- GI50 (SNB-78): > 100 µM (inactive)
- GI50 (SW-620): > 100 µM (inactive)
- GI50 (TK-10): > 100 µM (inactive)
- GI50 (U-251): 95.9 µM (inactive)
- GI50 (UACC-257): > 100 µM (inactive)
- GI50 (UACC-62): > 100 µM (inactive)
- GI50 (UO-31): > 100 µM (inactive)
- GI50 (XF498): > 100 µM (inactive)

SMILES: O=c1[nH]c(=O)n(C2OC(CO)C(O)C2O)cc1/N=N/NCc1ccccc1 (configuration not stated)
- GI50 (786-0): > 100 µM (inactive)
- GI50 (A498): > 100 µM (inactive)
- GI50 (A549): > 100 µM (inactive)
- GI50 (ACHN): > 100 µM (inactive)
- GI50 (CAKI-1): > 100 µM (inactive)
- GI50 (CCRF-CEM): > 69.5 µM (inactive)
- GI50 (COLO 205): > 69.2 µM (inactive)
- GI50 (DLD-1): > 60.1 µM (inactive)
- GI50 (DMS-114): > 66.5 µM (inactive)
- GI50 (DMS-273): > 71.6 µM (inactive)
- GI50 (EKVX): > 100 µM (inactive)
- GI50 (HCC 2998): > 100 µM (inactive)
- GI50 (HCT-116): > 62.2 µM (inactive)
- GI50 (HCT-15): > 65 µM
- GI50 (HL-60): > 64.3 µM (inactive)
- GI50 (HOP-18): > 100 µM (inactive)
- GI50 (HOP-62): > 100 µM (inactive)
- GI50 (HOP-92): > 100 µM (inactive)
- GI50 (HT-29): > 100 µM (inactive)
- GI50 (IGROV-1): > 100 µM (inactive)
- GI50 (K562): > 71.9 µM (inactive)
- GI50 (KM-20L2): > 100 µM (inactive)
- GI50 (KM12): > 100 µM (inactive)
- GI50 (LOX IMVI): > 63.8 µM (inactive)
- GI50 (LXFL 529): 98.2 µM (inactive)
- GI50 (M14): > 100 µM (inactive)
- GI50 (M19-MEL): > 100 µM (inactive)
- GI50 (MOLT-4): > 100 µM (inactive)
- GI50 (Malme-3M): > 100 µM (inactive)
- GI50 (NCI-H226): > 100 µM (inactive)
- GI50 (NCI-H23): > 100 µM (inactive)
- GI50 (NCI-H460): > 69.2 µM (inactive)
- GI50 (NCI-H522): > 100 µM (inactive)
- GI50 (OVCAR-3): > 100 µM (inactive)
- GI50 (OVCAR-4): > 100 µM (inactive)
- GI50 (OVCAR-5): > 100 µM (inactive)
- GI50 (OVCAR-8): > 100 µM (inactive)
- GI50 (RPMI-8226): > 59.6 µM (inactive)
- GI50 (RXF 393): > 79.4 µM (inactive)
- GI50 (RXF 631): > 100 µM (inactive)
- GI50 (SF-268): > 100 µM (inactive)
- GI50 (SF-295): > 100 µM (inactive)
- GI50 (SF-539): > 100 µM (inactive)
- GI50 (SK-MEL-28): > 100 µM (inactive)
- GI50 (SK-MEL-2): > 100 µM (inactive)
- GI50 (SK-MEL-5): > 100 µM (inactive)
- GI50 (SK-OV-3): > 100 µM (inactive)
- GI50 (SN12C): > 100 µM (inactive)
- GI50 (SNB-19): > 100 µM (inactive)
- GI50 (SNB-75): > 100 µM (inactive)
- GI50 (SNB-78): > 100 µM (inactive)
- GI50 (SR): > 63.2 µM (inactive)
- GI50 (SW-620): > 53.5 µM (inactive)
- GI50 (TK-10): > 100 µM (inactive)
- GI50 (U-251): > 100 µM (inactive)
- GI50 (UACC-257): > 100 µM (inactive)
- GI50 (UACC-62): > 100 µM (inactive)
- GI50 (UO-31): > 100 µM (inactive)
- GI50 (XF498): > 100 µM (inactive)

SMILES: O/N=C1/C(=C/c2ccc(F)cc2)CCCC1C(NO)c1ccc(F)cc1 (configuration not stated)
- GI50 (786-0): 76.2 µM (inactive)
- GI50 (A498): > 100 µM (inactive)
- GI50 (A549): 32.9 µM (inactive)
- GI50 (ACHN): > 100 µM (inactive)
- GI50 (CAKI-1): 62.7 µM (inactive)
- GI50 (CCRF-CEM): 33.2 µM (inactive)
- GI50 (COLO 205): 33.5 µM (inactive)
- GI50 (DLD-1): 65.2 µM (inactive)
- GI50 (DMS-114): 29.9 µM (inactive)
- GI50 (DMS-273): 40.6 µM (inactive)
- GI50 (EKVX): 38.9 µM (inactive)
- GI50 (HCC 2998): 35.6 µM (inactive)
- GI50 (HCT-116): 30 µM (inactive)
- GI50 (HCT-15): 38 µM
- GI50 (HL-60): 25.1 µM (inactive)
- GI50 (HOP-18): 21.1 µM (inactive)
- GI50 (HOP-62): > 100 µM (inactive)
- GI50 (HT-29): 21.6 µM (inactive)
- GI50 (IGROV-1): 89.1 µM (inactive)
- GI50 (K562): 29.1 µM (inactive)
- GI50 (KM-20L2): 28.8 µM (inactive)
- GI50 (KM12): 22.3 µM (inactive)
- GI50 (LXFL 529): 38.4 µM (inactive)
- GI50 (M14): 32.8 µM (inactive)
- GI50 (M19-MEL): 38.3 µM (inactive)
- GI50 (MOLT-4): 22.3 µM (inactive)
- GI50 (Malme-3M): 26.7 µM (inactive)
- GI50 (NCI-H23): 16.6 µM (inactive)
- GI50 (NCI-H460): > 100 µM (inactive)
- GI50 (NCI-H522): 17.5 µM (inactive)
- GI50 (OVCAR-3): 23.7 µM (inactive)
- GI50 (OVCAR-4): 31.5 µM (inactive)
- GI50 (OVCAR-8): 35.8 µM (inactive)
- GI50 (RPMI-8226): 20.8 µM (inactive)
- GI50 (RXF 393): 21.3 µM (inactive)
- GI50 (RXF 631): 33 µM (inactive)
- GI50 (SF-268): 23.2 µM (inactive)
- GI50 (SF-295): 41 µM (inactive)
- GI50 (SF-539): 42.2 µM (inactive)
- GI50 (SK-MEL-28): 25.8 µM (inactive)
- GI50 (SK-MEL-2): 34.6 µM (inactive)
- GI50 (SK-MEL-5): 19 µM (inactive)
- GI50 (SK-OV-3): > 100 µM (inactive)
- GI50 (SN12C): 20.8 µM (inactive)
- GI50 (SNB-19): 52.4 µM (inactive)
- GI50 (SNB-75): 50.1 µM (inactive)
- GI50 (SNB-78): 67 µM (inactive)
- GI50 (SW-620): 51.9 µM (inactive)
- GI50 (TK-10): 71.4 µM (inactive)
- GI50 (U-251): 46.8 µM (inactive)
- GI50 (UACC-257): 25.4 µM (inactive)
- GI50 (UACC-62): 34.4 µM (inactive)
- GI50 (UO-31): 25.6 µM (inactive)
- GI50 (XF498): 64 µM (inactive)

Reference: ChEMBL document CHEMBL1201862, “PubChem BioAssay data set” (2004)
